The results in this text go back to patent US20140096445A1, “METHOD OF CULTIVATION IN WATER DEFICIT CONDITIONS” (SYNGENTA PARTICIPATIONS AG, priority 2011, published 2014).

Assay type in all cases: in vivo
Test [1] relates to soybean. In words: Lateral-move sprinkler irrigation field study on soybean, Examples 29-30. As to conditions: soybean, sprinkler irrigation.
For test [2], the system named is soybean. Nature of the test: Sprinkler irrigation field study on soybean yield, deficit vs fully irrigated, Examples 27-28. An excerpt: Testing Procedure: The overall objective was to conduct an irrigation management test to study the effects of fungicides and crop enhancement products on yield, WUE, and disease control under full irrigation and deficit irrigation conditions. This was a sprinkler irrigation field study conducted on a deep silt loam soil. The test was set up to specifically quantify the impact of azoxystrobin and acibenzolar-S-methyl on soybean yield and water productivity of soybean under limited (deficit) and fully-irrigated settings. The study utilized a sprinkler irrigation system. The study was replicated three times in an […]. Irrigation control panels, chemical injection pumps, and filters were housed at the irrigation well house to manage irrigation and chemigation events.
Soil water status was monitored throughout the growing season using soil moisture sensors. Soybean variety NK S31-L7 was planted on May 11, 2011 at the rate of 150,000 seed per acre. Testing parameters, and irrigation levels were conducted according to the University of Nebraska experimental procedure [see e.g., (1) Irmak, et. al.] Moisture levels, irrigation levels, evapotranspiration, and plant health were measured throughout the growing season. Climatic variables were measured (air temperature, rainfall, solar and net radiation, relative humidity, rainfall, wind speed and direction) throughout the season. Irrigation for the fully irrigated treatments was scheduled according to need by a climatic water budget using calculated evapotranspiration as a withdrawal and with rainfall and irrigation as deposits. […] Volumetric soil water content was measured in one-foot increments to a depth of 8 ft on an approximately weekly basis throughout the crop season to determine total water use. Crop water use was calculated as the sum of irrigation, precipitation and changes in soil water between the initial and final soil water sampling dates. Water productivity (WUE) was calculated as the crop yield divided by the seasonal water use (Water Productivity (WP)=Yield/ETc). […]

Test [3] has as its system soybean. In words: Sprinkler irrigation field study on soybean yield and WUE, Table 14 (treatments 31-32).
Test [4] relates to corn. In words: Greenhouse subsurface drip irrigation trial, deficit irrigated, Examples 4-8. As to conditions: for % Yield Increase by Product over Untr./50% Irr. / Yield: SDI chemigated at V3/V4, 50% irrigated deficit, Azoxystrobin 261, PPZ 126, TXP 250, PBZ 12.5, TMX 70 gai/ha; for Yield compared with the control, in words: water stress regime (50% irrigated), SDI. The method, then:
(§1) A greenhouse subsurface drip irrigation trial was conducted on corn to evaluate treatment effects on yield in fully irrigated vs. deficit irrigated conditions. In this experiment, standardized growth conditions were applied across all corn treatments including: soil-water availability, soil texture and composition, soil chemical and physical properties, meteorological and environmental parameters, and plant nutrition in a greenhouse. No indication of plant disease or pest damage was observed over the course of the study and no pest management program was necessary. A homogeneous sand-organic matter soil mixture (0.18% organic matter) was used as the growth medium in 55-gal containers. These containers were used as a weighing lysimeter, where daily changes in system weight were used to calculate plant transpiration. Four corn plants were grown in each 55-gal container. Three 55-gal containers (12 plants total) made up each treatment. All irrigation and chemical treatments were applied via sub-surface irrigation. Chemical treatments consisted of: azoxystrobin (Quadris), paclobutrazol (Trimmit), trinexapac-ethyl (Moddus), and propiconazole (Tilt) at maximum labeled rates.
(§2) Corn plants were grown from seed and transplanted in the 55-gal drums approximately 14 days after planting. Uniform adequate irrigation was applied up to growth stage V3/V4 to ensure plant establishment. Chemical treatment applications were applied at growth stage V3/V4 via sub-surface chemigation. At stage V3/V4, irrigation was decreased to replicate deficit water conditions across all treatments for the remainder of the study period. Irrigation was managed daily to maintain 50% plant-available water. Visual signs of abiotic plant stress were observed approximately 30 days after chemical application. All corn plants were grown to yield and cobs were harvested when kernels were uniformly dry (15% moisture content). Root architecture, specifically relative number of fine roots, was measured at within 2 weeks of harvest using a digital imaging technique. Fine roots are related to water uptake productivity, which is directly tied to the ability of the plant to access soil-water under stress.

Test [5] concerns corn. Nature of the test: Greenhouse sub-surface chemigation, yield and root architecture under deficit water, Examples 20-23. As to conditions: for Yield (% difference from UTC) / Relative number of fine roots (% difference from UTC): sub-surface chemigation at V3/V4, maximum labeled rates, 50% plant-available water; for Relative number of fine roots (% difference from UTC): within 2 weeks of harvest.
From the text: as §1, with “In” for “A greenhouse subsurface drip irrigation trial was conducted on corn to evaluate treatment effects on yield in fully irrigated vs. deficit irrigated conditions. In”
as §2

The mark [6] stands for this setting: 60% irrigated deficit, Acibenzolar-S-methyl 10 gai/ha, Azoxy foliar 150 gai/ha + Acibenzolar-S-methyl 10 gai/ha.

Marks after values point to notes of the source that are not given here.

For `CSC(=O)c1cccc2nnsc12` [Acibenzolar-S-methyl, acibenzolar-S-methyl], the “Water productivity, in words” value with soybean [1] is listed as “increase in water productivity”. Besides, the “Yield, statistical statement” value in the test on soybean [2] (60% Irrigation (deficit)) is recorded as “significant difference in yield”. Also, in the test with soybean [2] (setting [6]), the “% Yield Increase over Untr./60% irr.” value is given as “+1% over Untr./60% irr” and the Yield is on record as 53.1 Bu./acre. Besides, the “Yield compared with the untreated, in words” value with soybean [3] (Azoxystrobin: foliar (2 applications) at 60% & 100% irrigated) is “differences in yield over the untreated”. Besides, in the test with soybean [3] (water deficit regime), the “WUE differences, in words” value is recorded as “Good WUE differences”.

In the case of `CCCC1COC(Cn2cncn2)(c2ccc(Cl)cc2Cl)O1` (stereo not shown) [PPZ, propiconazole], in the test on corn [4], the “% Yield Increase by Product over Untr./50% Irr.” value (“% Yield Increase by Product” for short) is “+3.3% Incr. over Untr./50% Irr”; the Yield worked out at 1906 Kg/Ha; the “Yield compared with the control, in words” value is recorded as “statistically higher than the control”. Besides, in the test on corn [5], the “Yield (% difference from UTC)” value stood at 3.3% and the “Relative number of fine roots (% difference from UTC)” value was 39.4† %.

With `CC(C)(C)[C@@H](O)[C@@H](Cc1ccc(Cl)cc1)n1cncn1` (racemic) [PBZ, paclobutrazol], in the test on corn [4], the “% Yield Increase by Product” value is “+16.6% Incr. over Untr./50% Irr”; the Yield is reported as 2152† Kg/Ha; the “Yield compared with the control, in words” value is reported as “statistically higher than the control”. Besides, in the test with corn [5], the “Yield (% difference from UTC)” value is recorded as 16.6† % and the “Relative number of fine roots (% difference from UTC)” value is listed as 70.0† %. In addition, in the test with corn [5] (sub-surface chemigation, abiotic stress, P values <0.001 at the 95th percentile confidence interval), the “Yield compared with the control, statistical statement” value is recorded as “statistically different from the control”.

As for `CN1COCN(Cc2cnc(Cl)s2)/C1=N\[N+](=O)[O-]` [TMX, thiamethoxam], in the test with corn [4], the “% Yield Increase by Product” value is reported as “+4% Incr. over Untr./50% Irr” and the Yield is given as 1916 Kg/Ha.
